Source: patent US6706739B2, “Imidazolidinone compounds” (National Health Research Institute, priority 2001, dated 2004)
Read-outs that look alike come from different tables or passages of the source.

Tests used:
Assay type in all cases: cell-based
[1] = tested on: coxsackievirus A9; experiment: Plaque reduction assay, coxsackievirus A9
[2] = tested on: enterovirus 71; experiment: Plaque reduction assay, enterovirus 71
[3] = tested on: coxsackievirus A24; experiment: Plaque reduction assay, coxsackievirus A24
[4] = plaque reduction assay, vero cells, 35° C., 96 hours

O=C1N(CCCCCCCOc2ccc(Br)cc2)CCN1c1ccncc1 [Compound 50, 1-[7-(4-bromophenoxy)heptyl]-3-(4-pyridyl)-2-imidazolidinone]
showed antiviral activity: antiviral activity against enteroviruses, in particular coxsackievirus A9 [1, 4] | antiviral activity against enteroviruses, in particular enterovirus 71 [2, 4] | antiviral activity against enteroviruses, in particular coxsackievirus A24 [3, 4]

O=C1N(CCCCCCOc2ccc(Br)cc2)CCN1c1ccncc1 [Compound 17, 1-[6-(4-bromophenoxy)hexyl]-3-(4-pyridyl)-2-imidazolidinone]
showed antiviral activity: antiviral activity against enteroviruses, in particular coxsackievirus A9 [1, 4] | antiviral activity against enteroviruses, in particular enterovirus 71 [2, 4] | antiviral activity against enteroviruses, in particular coxsackievirus A24 [3, 4]

O=C1N(CCCCCOc2ccc(-c3ccc(Cl)cc3)cc2)CCN1c1ccncc1 [Compound 73, 1-[6-(4-(4′-chloro)biphenyl-4-yloxy)pentyl]-3-pyridin-4-yl-imidazolidin-2-one]
showed antiviral activity: antiviral activity against enteroviruses, in particular coxsackievirus A9 [1] | antiviral activity against enteroviruses, in particular enterovirus 71 [2] | antiviral activity against enteroviruses, in particular coxsackievirus A24 [3]

O=C1N(CCCCCOc2ccc(Br)cc2)CCN1c1ccncc1 [Compound 52, 1-[5-(4-bromophenoxy)pentyl]-3-(4-pyridyl)-2-imidazolidinone]
showed antiviral activity: antiviral activity against enteroviruses, in particular coxsackievirus A9 [1, 4] | antiviral activity against enteroviruses, in particular enterovirus 71 [2, 4] | antiviral activity against enteroviruses, in particular coxsackievirus A24 [3, 4]

O=C1N(CCCCCCOc2ccc(Cl)cc2)CCN1c1ccncc1 [Compound 24, 1-[6-(4-chlorophenoxy)hexyl]-3-(4-pyridyl)-2-imidazolidinone]
showed antiviral activity: antiviral activity against enteroviruses, in particular coxsackievirus A9 [1, 4] | antiviral activity against enteroviruses, in particular enterovirus 71 [2, 4] | antiviral activity against enteroviruses, in particular coxsackievirus A24 [3, 4]

CC1CN(CCCCCCOc2ccc(Cl)cc2)C(=O)N1c1ccncc1 (stereo not drawn) [Compound 21, 1-[6-(4-chlorophenoxy)hexyl]-4-methyl-3-(4-pyridyl)-2-imidazolidinone]
showed antiviral activity: antiviral activity against enteroviruses, in particular coxsackievirus A9 [1, 4] | antiviral activity against enteroviruses, in particular enterovirus 71 [2, 4] | antiviral activity against enteroviruses, in particular coxsackievirus A24 [3, 4]

O=C1N(CCCCCCOc2ccc(C(F)(F)F)cc2)CCN1c1ccncc1 [Compound 1, 1-(4-pyridyl)-3-(6-[4-(trifluoromethyl)phenoxy]hexyl)-2-imidazolidinone]
showed antiviral activity: antiviral activity against enteroviruses, in particular coxsackievirus A9 [1, 4] | antiviral activity against enteroviruses, in particular enterovirus 71 [2, 4] | antiviral activity against enteroviruses, in particular coxsackievirus A24 [3, 4]

O=C1N(CCCCCCOc2ccc(C(F)(F)F)cc2)CCN1c1cccnc1 [Compound 42, 1-(3-pyridyl)-3-(6-[4-(trifluoromethyl)phenoxy]hexyl)-2-imidazolidinone]
showed antiviral activity: antiviral activity against enteroviruses, in particular coxsackievirus A9 [1, 4] | antiviral activity against enteroviruses, in particular enterovirus 71 [2, 4] | antiviral activity against enteroviruses, in particular coxsackievirus A24 [3, 4]

O=C1N(CCCCCOCCOc2ccc(Br)cc2)CCN1c1ccncc1 [Compound 47, 1-(5-[2-(4-bromophenoxy)ethoxy]pentyl)-3-(4-pyridyl)-2-imidazolidinone]
showed antiviral activity: antiviral activity against enteroviruses, in particular coxsackievirus A9 [1, 4] | antiviral activity against enteroviruses, in particular enterovirus 71 [2, 4] | antiviral activity against enteroviruses, in particular coxsackievirus A24 [3, 4]

COc1ccc(-c2ccc(OCCCCCN3CCN(c4ccncc4)C3=O)cc2)cc1 [Compound 74, 1-[5-(4′-methoxy-biphenyl-4-yloxy)pentyl]-3-pyridin-4-yl-imidazolidin-2-one]
showed antiviral activity: antiviral activity against enteroviruses, in particular coxsackievirus A9 [1, 4] | antiviral activity against enteroviruses, in particular enterovirus 71 [2, 4] | antiviral activity against enteroviruses, in particular coxsackievirus A24 [3, 4]

O=C1N(CCCCCOc2ccc(-c3ccc([N+](=O)[O-])cc3)cc2)CCN1c1ccncc1 [Compound 76, 1-[5-(4′-nitro-biphenyl-4-yloxy)pentyl]-3-pyridin-4-yl-imidazolidin-2-one]
showed antiviral activity: antiviral activity against enteroviruses, in particular coxsackievirus A9 [1, 4] | antiviral activity against enteroviruses, in particular enterovirus 71 [2, 4] | antiviral activity against enteroviruses, in particular coxsackievirus A24 [3, 4]

O=C1N(CCCCCCOc2ccc(Br)cc2)CCN1c1cccnc1 [Compound 33, 1-[6-(4-bromophenoxy)hexyl]-3-(3-pyridyl)-2-imidazolidinone]
showed antiviral activity: antiviral activity against enteroviruses, in particular coxsackievirus A9 [1, 4] | antiviral activity against enteroviruses, in particular enterovirus 71 [2, 4] | antiviral activity against enteroviruses, in particular coxsackievirus A24 [3, 4]

O=C1N(CCCCCCOc2ccc(I)cc2)CCN1c1ccncc1 [Compound 61, 1-[6-(4-iodophenoxy)hexyl]-3-(4-pyridyl)-2-imidazolidinone]
showed antiviral activity: antiviral activity against enteroviruses, in particular coxsackievirus A9 [1, 4] | antiviral activity against enteroviruses, in particular enterovirus 71 [2, 4] | antiviral activity against enteroviruses, in particular coxsackievirus A24 [3, 4]

O=C1N(CCCCOCCOc2ccc(Br)cc2)CCN1c1ccncc1 [Compound 34, 1-4-[2-(4-bromophenoxy)ethoxy]butyl-3-(4-pyridyl)-2-imidazolidinone]
showed antiviral activity: antiviral activity against enteroviruses, in particular coxsackievirus A9 [1, 4] | antiviral activity against enteroviruses, in particular enterovirus 71 [2, 4] | antiviral activity against enteroviruses, in particular coxsackievirus A24 [3, 4]

O=C1N(CCCCCCCOc2ccc(Cl)cc2)CCN1c1ccncc1 [Compound 2, 1-[7-(4-chlorophenoxy)heptyl]-3-(4-pyridyl)-2-imidazolidinone]
showed antiviral activity: antiviral activity against enteroviruses, in particular coxsackievirus A9 [1, 4] | antiviral activity against enteroviruses, in particular enterovirus 71 [2, 4] | antiviral activity against enteroviruses, in particular coxsackievirus A24 [3, 4]

O=C1N(CCCCCCCOc2ccc(Cl)cc2)CCN1c1cccnc1 [Compound 39, 1-[7-(4-chlorophenoxy)heptyl]-3-(3-pyridyl)-2-imidazolidinone]
showed antiviral activity: antiviral activity against enteroviruses, in particular coxsackievirus A9 [1, 4] | antiviral activity against enteroviruses, in particular enterovirus 71 [2, 4] | antiviral activity against enteroviruses, in particular coxsackievirus A24 [3, 4]

O=C1N(CCCCCOc2ccc(Cl)cc2)CCN1c1ccncc1 [Compound 28, 1-[5-(4-chlorophenoxy)pentyl]-3-(4-pyridyl)-2-imidazolidinone]
showed antiviral activity: antiviral activity against enteroviruses, in particular coxsackievirus A9 [1, 4] | antiviral activity against enteroviruses, in particular enterovirus 71 [2, 4] | antiviral activity against enteroviruses, in particular coxsackievirus A24 [3, 4]
